Laboratory results published in PubChem BioAssay AID2060508 (Molecular Pharmacology Branch, DTP, NCI, 2025).

Tested on: 454973-116-R2-J3-PDC spheroids, viability, % test/control
Assay: Anticancer human tumor 454973-116-R2-J3-PDC patient-derived pancreatic carcinoma cell line growth inhibition [GQUAD]
Conditions: spheroids with HUVEC and MSC; for IC50: curve of first compound; for viability, T/C: stronger effect = lower value
Summary of the method: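 Tumor cells were grown as complex spheroids with HUVEC endothelial cells and mesenchymal stem cells as stroma. G-quadruplex stabilizers were combined with targeted agents over half-log dilutions from near the clinical Cmax, or from 10 microM.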

[1] = second compound 0.0316 µM, first compound 0.0316 µM
[2] = second compound 0.0316 µM, first compound 0.316 µM
[3] = second compound 0.1 µM, first compound 0.0316 µM
[4] = second compound 0.1 µM, first compound 0.316 µM
[5] = second compound 0.316 µM, first compound 0.0316 µM
[6] = second compound 0.316 µM, first compound 0.316 µM
[7] = second compound 1 µM, first compound 0.0316 µM
[8] = second compound 1 µM, first compound 0.316 µM
[9] = second compound 3.16 µM, first compound 0.0316 µM
[10] = second compound 3.16 µM, first compound 0.316 µM
[11] = second compound 10 µM, first compound 0.0316 µM
[12] = second compound 10 µM, first compound 0.316 µM
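Further: spheroids exposed to compounds for seven days.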
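Wherever viability, T/C is given: 100% = DMSO vehicle control viability.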

Cc1cccc(N(C)C(=O)C2C(O)CCN2c2nc(C)cc(C(F)(F)F)c2C#N)c1 (centres undefined) + Cc1[nH]c2ccc(F)cc2c1-c1nc2c3cccnc3c3ncccc3c2[nH]1
IC50 (second compound 0.0316 µM): > 10 µM
IC50 (second compound 0.1 µM): > 10 µM
IC50 (second compound 0.316 µM): > 10 µM
IC50 (second compound 1 µM): > 10 µM
IC50 (second compound 3.16 µM): > 10 µM
IC50 (second compound 10 µM): > 10 µM
viability, T/C [1]: 102%
viability, T/C (second compound 0.0316 µM, first compound 0.1 µM): 94.9%
viability, T/C [2]: 104%
viability, T/C (second compound 0.0316 µM, first compound 1 µM): 102%
viability, T/C (second compound 0.0316 µM, first compound 3.16 µM): 108%
viability, T/C (second compound 0.0316 µM, first compound 10 µM): 98%
viability, T/C [3]: 102%
viability, T/C (second compound 0.1 µM, first compound 0.1 µM): 100%
viability, T/C [4]: 103%
viability, T/C (second compound 0.1 µM, first compound 1 µM): 97.7%
viability, T/C (second compound 0.1 µM, first compound 3.16 µM): 115%
viability, T/C (second compound 0.1 µM, first compound 10 µM): 108%
viability, T/C [5]: 104%
viability, T/C (second compound 0.316 µM, first compound 0.1 µM): 104%
viability, T/C [6]: 109%
viability, T/C (second compound 0.316 µM, first compound 1 µM): 101%
viability, T/C (second compound 0.316 µM, first compound 3.16 µM): 109%
viability, T/C (second compound 0.316 µM, first compound 10 µM): 110%
viability, T/C [7]: 103%
viability, T/C (second compound 1 µM, first compound 0.1 µM): 105%
viability, T/C [8]: 113%
viability, T/C (second compound 1 µM, first compound 1 µM): 107%
viability, T/C (second compound 1 µM, first compound 3.16 µM): 112%
viability, T/C (second compound 1 µM, first compound 10 µM): 106%
viability, T/C [9]: 86.8%
viability, T/C (second compound 3.16 µM, first compound 0.1 µM): 88.7%
viability, T/C [10]: 97.4%
viability, T/C (second compound 3.16 µM, first compound 1 µM): 106%
viability, T/C (second compound 3.16 µM, first compound 3.16 µM): 103%
viability, T/C (second compound 3.16 µM, first compound 10 µM): 105%
viability, T/C [11]: 105%
viability, T/C (second compound 10 µM, first compound 0.1 µM): 95.8%
viability, T/C [12]: 101%
viability, T/C (second compound 10 µM, first compound 1 µM): 90.2%
viability, T/C (second compound 10 µM, first compound 3.16 µM): 99%
viability, T/C (second compound 10 µM, first compound 10 µM): 101%

Cn1ncnc1[C@H]1c2n[nH]c(=O)c3cc(F)cc(c23)N[C@@H]1c1ccc(F)cc1 + Cc1[nH]c2ccc(F)cc2c1-c1nc2c3cccnc3c3ncccc3c2[nH]1
IC50 (second compound 0.0316 µM): > 0.316 µM
IC50 (second compound 0.1 µM): > 0.316 µM
IC50 (second compound 0.316 µM): > 0.316 µM
IC50 (second compound 1 µM): > 0.316 µM
IC50 (second compound 3.16 µM): > 0.316 µM
IC50 (second compound 10 µM): > 0.316 µM
viability, T/C (second compound 0.0316 µM, first compound 0.000999 µM): 115%
viability, T/C (second compound 0.0316 µM, first compound 0.00316 µM): 95.3%
viability, T/C (second compound 0.0316 µM, first compound 0.00999 µM): 101%
viability, T/C [1]: 87.7%
viability, T/C (second compound 0.0316 µM, first compound 0.0999 µM): 97.4%
viability, T/C [2]: 84%
viability, T/C (second compound 0.1 µM, first compound 0.000999 µM): 93.6%
viability, T/C (second compound 0.1 µM, first compound 0.00316 µM): 97.6%
viability, T/C (second compound 0.1 µM, first compound 0.00999 µM): 94.4%
viability, T/C [3]: 104%
viability, T/C (second compound 0.1 µM, first compound 0.0999 µM): 86.1%
viability, T/C [4]: 77.6%
viability, T/C (second compound 0.316 µM, first compound 0.000999 µM): 101%
viability, T/C (second compound 0.316 µM, first compound 0.00316 µM): 99.6%
viability, T/C (second compound 0.316 µM, first compound 0.00999 µM): 91.9%
viability, T/C [5]: 92.7%
viability, T/C (second compound 0.316 µM, first compound 0.0999 µM): 90.7%
viability, T/C [6]: 83.8%
viability, T/C (second compound 1 µM, first compound 0.000999 µM): 107%
viability, T/C (second compound 1 µM, first compound 0.00316 µM): 104%
viability, T/C (second compound 1 µM, first compound 0.00999 µM): 91.6%
viability, T/C [7]: 98%
viability, T/C (second compound 1 µM, first compound 0.0999 µM): 83.5%
viability, T/C [8]: 81%
viability, T/C (second compound 3.16 µM, first compound 0.000999 µM): 93.9%
viability, T/C (second compound 3.16 µM, first compound 0.00316 µM): 98.5%
viability, T/C (second compound 3.16 µM, first compound 0.00999 µM): 92.1%
viability, T/C [9]: 83%
viability, T/C (second compound 3.16 µM, first compound 0.0999 µM): 82.3%
viability, T/C [10]: 82%
viability, T/C (second compound 10 µM, first compound 0.000999 µM): 87.4%
viability, T/C (second compound 10 µM, first compound 0.00316 µM): 100%
viability, T/C (second compound 10 µM, first compound 0.00999 µM): 93%
viability, T/C [11]: 78.4%
viability, T/C (second compound 10 µM, first compound 0.0999 µM): 82.4%
viability, T/C [12]: 76.1%
